A short description of the data set: Human HepG2 cell viability assay in 384 well format. Particulars: HepG2 cells, read-out: Inhibition. On the set-up: dose 125 nL, time 70.5 hour; concentration not given beside the values. In kind it is toxicity, cell-based.

Regarding `Cc1nc(CN(C)C(=O)c2ccc(Cn3cnnn3)cc2)cs1`, the cytotoxicity at 70.5 h amounted to 21.4%.
As for `COc1cccc(C2CCN(c3ccc4cc[nH]c4n3)C2)c1OC` (configuration not stated), the figure is 1.26%; as for `Cc1nccc(N[C@H]2CN(C(=O)CCN3CCCC3=O)C[C@@H]2C(C)C)n1`, -19.6%; as for `O=C1CCCCCN1Cc1cccc(OC(F)F)c1`, -5.05%.
On to `O=C(O)c1cnc(N2CC[C@H](N3CCOCC3)[C@H](CCCO)C2)c(Cl)c1`, for which the cytotoxicity at 70.5 h was -7.02%.
Then `O=C(NCCc1cnccn1)C1(N2CCCCC2)Cc2ccccc2C1`, with -8.18%; and `Cc1cc(C)c2c(N3CCN(C(=O)N(C)C)CC3)ncnc2n1`, with -3.44%; and `CN(Cc1n[nH]c2c1CCC2)C(=O)c1cccc(CCC(C)(C)O)c1`, with 1.92%.
For `Cc1cccc2[nH]c(C3CCCN3Cc3ccc(CO)o3)nc12` (configuration not stated), the cytotoxicity at 70.5 h was -9.7%.
As for `CCc1[nH]c2c(CNC(=O)C3CNC(=O)C3)cc(C)cc2c1C` (configuration not stated), the figure is -11.3%; as for `Cc1nc2c(c(NCC(c3cccnc3)N3CCOCC3)n1)CCNC2` (configuration not stated), -15.5%.
With `OCC1(O)CCCN(Cc2noc(-c3ccccc3)n2)CC1` (configuration not stated), the cytotoxicity at 70.5 h is 26.3%.
Then `Cc1nonc1CN(C)Cc1nc(-c2ccccc2Cl)oc1C`, with -7.91%; and `CCN1CCC(Cn2ccc3ccc(C(=O)OC)cc3c2=O)C1` (configuration not stated), with -6.6%; and `COCCCN1C(=O)CC[C@H]2CN(c3cnc4ccccc4n3)CC[C@H]21`, with 25%.
As for `N#Cc1ccccc1C(=O)NCCC1CN(Cc2ccco2)CCO1` (configuration not stated), the cytotoxicity at 70.5 h was found to be 2.72%.
Regarding `NC(=O)c1cc2c(nc1-c1ccoc1)CCC2`, the cytotoxicity at 70.5 h was -6.2%.
Then `CC1(C)CN(CCC(=O)NCc2cccc(Cl)c2)CC[C@]1(C)O`, with -9.57%.
Turning to `Cc1cc(C(=O)N2CCCC(c3nccn3Cc3ccncc3)C2)no1` (configuration not stated), the cytotoxicity at 70.5 h was -12.9%.
Then `CCC(O)CNc1nccc(-c2ccc(C)nc2C)n1` (configuration not stated), with -14.6%; and `CC(C(=O)O)N1CC2(CCC1=O)CCN(CCc1ccccc1)CC2` (configuration not stated), with -11%.
As for `Clc1ccc(CN2CCC(C3CCN(Cc4cccnc4)CC3)C2)cc1` (configuration not stated), the figure is -2.87%; as for `CCCSCC(=O)N1C[C@H]2CC[C@@H]1CN(c1ncccn1)C2`, -14.1%.
As for `Cc1nnsc1CN1C[C@@H]2CC[C@H](C1)N(Cc1ccccc1)C2`, the figure is 8.69%; as for `O=C(CSCC1CC1)N1CCc2[nH]nc(COc3ccccc3)c2C1`, -6.96%; as for `Cc1nc2sccn2c1C(=O)N1CCn2nc(C(=O)NC3CC3)cc2C1`, -11.6%.
`Cc1cc(C(=O)N2CCc3[nH]nc(-c4ccc5c(c4)OCO5)c3C2)no1`: the cytotoxicity at 70.5 h amounted to 1.25%.
As for `CCc1cccc(OCCN(C)C(=O)c2ccccc2NCC(=O)O)c1`, the cytotoxicity at 70.5 h is -13.6%.
Then `CSCCCN1CCN(c2ccc(Cl)cn2)CC1`, with -5.7%; and `CC(C)=CCC1(C(=O)O)CCCN(c2ccnc(C)n2)C1` (configuration not stated), with -3.8%.
As for `COCC1(C(=O)N[C@H]2CN(c3nnc(C)s3)C[C@@H]2C2CC2)CCC1`, the figure is 7.64%; as for `CCN(Cc1nc(COC)no1)C[C@]1(O)CCCN2CCCC[C@@H]21`, -10.1%; as for `Cc1nc(NCCSc2nnc(C)s2)c2cccnc2n1`, -14.5%.
For `CN(C)CCn1ccnc1C1CCN(C(=O)CCc2ccncc2)CC1`, the cytotoxicity at 70.5 h is -5.61%.
Regarding `CN1CCCN(C[C@@H]2CN(C(=O)CC3CCC3)C[C@@H]2CO)CC1`, the cytotoxicity at 70.5 h is -2.25%.
As for `CNC(=O)c1noc(Cn2ncc3ccccc3c2=O)n1`, the figure is 0.589%; as for `CCCc1nc(C(=O)N2CCN(C(=O)OC)CC2)cs1`, -4.71%.
Then `COc1cc(C)ccc1C(=O)N1CCC2(CCC(=O)N(C(C)C)C2)CC1`, with -4.16%.
Regarding `COc1ccc(C2(C(=O)N3CC(c4cccnc4)C3)CC2(C)C)cc1` (configuration not stated), the cytotoxicity at 70.5 h was -0.294%.
Then `CCN1CC2(CCN(C(=O)C3CSC(C)(C)C(=O)N3)CC2)CC1=O` (configuration not stated), with -6.11%.
Then `Cc1ccc2nc(C3CCCN3Cc3nnc(C)s3)[nH]c2c1` (configuration not stated), with 26.6%; and `CCc1nnc(CN(C)C(=O)C2CC(=O)N(C3CC3)C2)o1` (configuration not stated), with -6.39%.
Take `CCCn1cc(-c2ccnc(NC3CCCc4ccccc43)n2)c(C)n1` (configuration not stated): the cytotoxicity at 70.5 h came to 18.9%.
As for `Cc1cc2nc(C(C)C)cc(N[C@H](C(N)=O)C(C)C)n2n1`, the figure is 32.4%; as for `Cc1ccc2nc(-c3nc4c([nH]3)CCCNC4=O)cn2c1`, -10.1%.
Consider `CC(=O)NCC1CCC2(CCN(c3ncc(C)cn3)CC2)O1` (configuration not stated), for which the cytotoxicity at 70.5 h was -3.04%.
As for `COc1ccc(-n2cccn2)cc1S(=O)(=O)N1C[C@H](C2CC2)[C@@H](N)C1`, the figure is -3.3%; as for `Cc1cccc(C(C(=O)NCc2nc(-c3cccnc3)no2)N(C)C)c1` (configuration not stated), 19.5%.
As for `CCc1cnc(NCC(C)Oc2cccnc2)nc1` (configuration not stated), the figure is -5.39%; as for `CCc1cc(N[C@H]2CCC[C@H]2O)n2nccc2n1`, 7.67%; as for `CN1CCCN(C[C@H]2C[C@H](CO)CN(Cc3cccnc3N)C2)CC1`, 22.4%.
As for `COC(=O)NCC(=O)N1CCCCC1c1nc2cc(F)ccc2[nH]1` (configuration not stated), the figure is 1.25%.
Consider `COCC[C@]1(O)CCN(C(=O)CCn2c(C)cccc2=O)C[C@H]1C`, for which the cytotoxicity at 70.5 h amounted to 12.1%.
Take `CN(Cc1n[nH]c2c1CCC2)C(=O)CCc1cc2n(n1)CCNC2`: the cytotoxicity at 70.5 h was -4.27%.
Then `O=C(NCCc1csc(-c2ccncc2)n1)C1CC(=O)N(C2CC2)C1` (configuration not stated), with -3.67%; and `CC[C@H](C)[C@@H](CO)NC(C)Cc1ccccc1F` (some centres not stated), with -2.57%; and `Cn1c(-c2cc3n(n2)CCCN(CC(=O)O)C3)nc2ccccc21`, with 22.8%.
Then `CCCn1cc(S(=O)(=O)N[C@H]2CN(CCO)C[C@@H]2C2CC2)cn1`, with -7.84%; and `Cc1ccc(OCC2CCCN(C(=O)Cn3ccccc3=O)C2)cc1` (configuration not stated), with 25%.
`CCNc1ncc(C(=O)N2Cc3nc(C)[nH]c(=O)c3C2)cn1`: the cytotoxicity at 70.5 h stood at 4.44%.
For `CC(C)(C)n1cc(C2=CCN(CCNC(N)=O)CC2)cn1`, the cytotoxicity at 70.5 h is -0.0754%.
Then `CN1CCC(N(CCc2ccccc2)C(=O)c2ccc(CO)cc2)CC1`, with -11.1%; and `NCCn1cc(C(=O)NCc2ccccc2-n2cccn2)nn1`, with -4.33%.
As for `COCc1c(C(=O)N2CCCC(C(=O)c3ccccc3)C2)noc1C` (configuration not stated), the figure is -3.85%; as for `Cn1cc2ncn(CCNc3cccnc3)c(=O)c2n1`, -3.81%; as for `Cc1cc(C(=O)N2C[C@H]3CC[C@@H]2CN(C)C3)ccc1Cl`, 29.4%.
Then `OCCO[C@H]1C[C@@H](O)C12CCN(Cc1nc(C(F)(F)F)no1)CC2`, with -8.19%.
On to `CSc1ncc(C(=O)N2C[C@@H](NC(C)=O)[C@H](c3ccc(C)cc3)C2)cn1`, for which the cytotoxicity at 70.5 h was -5.41%.
Then `CO[C@H]1CN(C(C)C)C[C@@H]1NC(=O)c1cc(-c2ccccc2O)n[nH]1`, with -1.03%; and `Cc1nc(CNC(=O)CC2C(=O)NCCN2CCC(C)C)n[nH]1` (configuration not stated), with -8.3%; and `COc1ccccc1OC1(C(=O)O)CCN(c2cc(C)nc(C)c2)CC1`, with -0.575%.
Take `O=C(C1CCC1)N1CC[C@]2(O)CCN(Cc3ncccn3)C[C@@H]2C1`: the cytotoxicity at 70.5 h was -9.87%.
Then `COCCC1CCCCN1Cc1nc(Cc2cccc(F)c2)no1` (configuration not stated), with -2.75%; and `CSCC(=O)N1CCc2c(cnc(C)c2-c2noc(-c3cc[nH]n3)n2)C1`, with -12.6%.
Then `Cc1ccc(C)c(OC(C)C(=O)NCCNc2cccnc2)c1` (configuration not stated), with -0.127%; and `COCCN(C)C[C@@H]1CN(C(=O)c2ccc(O)c(Cl)c2)C[C@@H]1CO`, with -4.52%.
Then `CN(C)[C@H]1CN(C(=O)c2ccc3sc4c(c3c2)CCNC4=O)C[C@@H]1O`, with -1.45%.
For the molecule `CCCc1nnc(N2CCN(c3ccccc3OCC)CC2)o1`, the cytotoxicity at 70.5 h is -4.12%.
As for `C/C(=C\c1ccco1)CN(C)C(C)Cc1ccccn1` (configuration not stated), the figure is 16%; as for `CCOc1ccccc1C(=O)N1CCCC(c2nccn2CCOC)C1` (configuration not stated), 10.7%; as for `CCc1nnc(NCc2cccc(OC)c2OC)o1`, 8.49%.
As for `Cc1ccnc(NCc2cn3nc(C)sc3n2)n1`, the figure is 1.46%.
Consider `COc1ccc(-n2ncc(C(C)NC3Cc4ccccc4C3)c2C)cc1` (configuration not stated), for which the cytotoxicity at 70.5 h amounted to 5.61%.
As for `CCc1cc(CN(C)Cc2nc(-c3ccc(OC)cc3F)oc2C)on1`, the figure is -5.4%; as for `Cc1nc(N2CCCN(C(=O)c3ccsc3)CC2)c2cnn(C)c2n1`, -2.94%; as for `CCCNC(=O)NC(=O)CNC(C)(C)c1ccc2c(c1)OCO2`, -0.993%.
As for `Cn1cc(C(=O)N2CCN(c3ncccn3)CC2)ccc1=O`, the cytotoxicity at 70.5 h was -2.44%.
Turning to `CC(c1nc(C2CC2)no1)N1CCN(CCN2CCCC2=O)CC1` (configuration not stated), the cytotoxicity at 70.5 h is -0.249%.
As for `O=C(CC1CCCO1)N1CCCN(c2cccnn2)CC1` (configuration not stated), the figure is -3.32%.
Regarding `CCc1cnc(CN(C)C2CCN(Cc3nnc(C4CC4)n3C)C2)o1` (configuration not stated), the cytotoxicity at 70.5 h was -2.36%.
As for `CC(C)(NCC(=O)NC(=O)NC1CC1)c1ccc2c(c1)OCO2`, the figure is -3.04%; as for `Cc1ccc(N2CCCN(C(=O)C3CCCO3)CC2)nn1` (configuration not stated), 4.49%.
With `CCc1noc(C(C)N2CCN(CCN3CCCC3=O)CC2)n1` (configuration not stated), the cytotoxicity at 70.5 h is -2.78%.
For the molecule `COc1cccc(N2CCC(CNCc3cccc(C#N)c3)C2)c1` (configuration not stated), the cytotoxicity at 70.5 h was 9.04%.
For `Cc1cnn(CC2CCCN2Cc2nnc(-c3ccccc3)o2)c1` (configuration not stated), the cytotoxicity at 70.5 h is -4.64%.
Take `CC(C)n1cc(CN2CCCN(C(=O)C3CCOC3)CC2)cn1` (configuration not stated): the cytotoxicity at 70.5 h is 19.9%.
Then `COc1c(C)cc(CNCc2ccnc(N3CCOCC3)c2)cc1C`, with 2.82%.
